In the test the test system is bioluminescent S. aureus Xen29. As to the kind of experiment: Kirby-Bauer disc diffusion test of antibiotic-loaded RSFPs. It counts as cell-based. The conditions noted are these: zones of inhibition on XEN29 cultures after 12 hours, vs blank RSFPs. How it is done:
Antimicrobial activity of tobramycin sulfate (TS), gentamicin sulfate (GS) and kanamycin sulfate (KS) encapsulated in RSFPs sized 100-500 mcm was assessed by Kirby-Bauer disc diffusion tests, performed according to methods outlined in the NCCLS Approved Standard M2-A7. A stock suspension of bioluminescent S. aureus Xen29 was prepared in sterile physiological solution and turbidity (expressed as optical density; OD) was adjusted against the McFahrland standard to match the 0.5 level. A sterilized cotton swab was immersed in the bacterial suspension, and a lawn of bacteria was applied on the Luria Bertani (LB) plates. A 10-mm biopsy punch was used to cut two circular fragments from each of the freshly infected plates, and both fragments were coated with antibiotic-loaded RSFPs by quick blotting against the pool of particles. The freshly mounted samples were inserted […] II system (Caliper life Science, America). The exposure time (1 s), excitation filter (430 nm), and emission filter with emission wavelength from 575 to 650 nm (DsRed) were set prior to detection.
In general terms: In agar diffusion tests the substance spreads into inoculated agar from a disc or well.

With gentamicin sulfate [GS], the “post-processing antimicrobial activity (antibiotic function) of cryoencapsulated antibiotics” value is recorded as “preserved”.

For the substance tobramycin sulfate [TS], the “post-processing antimicrobial activity (antibiotic function) of cryoencapsulated antibiotics” value is on record as “preserved”.

The values are drawn from patent US20220125930A1, “SYSTEM AND METHOD FOR FABRICATION OF LARGE, POROUS DRUG-SILK MATERIALS USING CRYOGRANULATION” (Trustees of Tufts College, priority 2019, published 2022).
